Read-outs that look alike come from different tables or passages of the source.

For one series, the system named is Stage 5b mouse follicles. How it is done: Cisplatin (CDDP) and cyclophosphamide (CTX) were obtained from Sigma-Aldrich (St. Louis, Mo.) and used at final concentrations of: 0.2, 1, and 5 μM. Nalbuphine and Raclopride were obtained from the NIH Clinical Collection (South San Francisco, Calif.) and used at final concentrations of: 0.2, 1, and 5 μM. Corexit EC 9500A was obtained via a Material Transfer Agreement from Nalco (Sugar Land, Tex.). CE was used at final concentrations of: 5 ppm, 10 ppm, 25 ppm, 50 ppm, 75 ppm, 100 ppm, 125 ppm, 150 ppm, 200 ppm, 250 ppm, 300 ppm, 350 ppm and 400 ppm, which correspond to 4.75 mg/L, 9.5 mg/L, 23.75 mg/L, 47.5 mg/L, 71.25 mg/L, 95 mg/L, 118.75 mg/L, 142.5 mg/L, […], 237.5 mg/L, 285 mg/L, 332.5 mg/L and 380 mg/L.
All experiments were performed using CD-1 female mice (Harlan Laboratories, Indianapolis, Ind.) that were housed in a controlled barrier facility at Northwestern University's Center of Comparative Medicine under constant temperature, humidity and light (12 h light/12 h dark). Food and water were provided ad libitum. All animal experiments were approved by the Institutional Animal Care and Use Committee and were in accordance with National Institutes of Health Guidelines. For follicle isolation, ovaries were dissected from 14-15-day-old mice and cut into 4 pieces. The tissue was incubated for 1 hour in L15 media (Invitrogen, Carlsbad, Calif., USA) containing 2% Liberase™ (Roche, Indianapolis, Ind.) and 1% DNase I (Worthington, Lakewood, N.J.). The enzymatic digestion was quenched by rinsing follicles in αMEM Glutamax (Invitrogen) containing 1% Fetal Bovine Serum (FBS, Invitrogen, Carlsbad, Calif.) and 0.5% Pen-Strep (Mediatech, Herndon, Va.). Type 5b multilayer secondary follicles (140-175 μm in diameter) were manually collected and cultured individually in wells of a 96-well plate (Pedersen and Peters, 1968; herein incorporated by reference in its entirety).
Follicles were cultured at 37° C. in a humidified atmosphere of 5% CO2 in air for up to 6 days. All chemical exposures were initiated on day 2 of culture. Half of the culture media was replaced with fresh GM every other day and spent media was stored at −20° C. for use in steroid hormone assays. Follicles were imaged at each media change using a Leica DM IRB inverted microscope equipped with 4× and 20× objectives (Leica Microsystems, Heidelberg, Germany) to assess survival, morphology and growth. Live follicles were defined as those that contained an oocyte surrounded completely by somatic cells. […] The percent of surviving follicles was calculated as the number of live follicles out of the total number of follicles plated. Antral cavity formation was assessed morphologically and characterized by the differentiation of outer layers of mural granulosa cells and inner layers of cumulus granulosa cells surrounding the oocyte as well as the presence of a fluid-filled structure.

The subject of another series is p53 stabilization in FTE. As to the kind of experiment: 3D human fimbriae culture: p53 immunohistochemistry. Type of series: cell-based. The note with it: 2 and 7 days treatment, n=8. How it is done:
(§1) Tissues were micro-dissected in alpha-MEM (Gibco, Carlsbad, Calif.) with 1% penicillin-streptomycin (Invitrogen, Carlsbad, Calif.). Individual fimbriae were separated into ˜50 mm^3 pieces. A portion of the tissue was fixed in 2% paraformaldehyde for use as an uncultured control. For optimization studies, fimbriae were cultured without matrix, encapsulated in 0.5% alginate, or encapsulated in 0.5% alginate with 1 mg/ml collagen and 0.1% fibronectin, as previously described for murine cultures (King et al. J Vis Exp. 2011.; herein incorporated by reference in its entirety). For subsequent treatments, 0.5% alginate encapsulated fimbriae were randomly assigned to treatment groups, with at least five fimbriae per condition, per patient, in a 24-well plate containing alpha-MEM and 1% penicillin-streptomycin. […] Prior to fixation, fimbriae were labeled with 10 μM bromodeoxyurine (BrdU, Sigma-Aldrich) for 24 hours to denote proliferating cells. Fimbriae cultures were fixed (2% paraformaldehyde) followed by dehydration in ethanol and xylene, and embedment in paraffin.
Sections (5 μm) were cut and stained via hematoxylin and eosin for morphological analysis or immunohistochemistry was performed to localize proteins of interest as previously described (King et al. Endocr Relat Cancer. 2011. 18:627-42.; herein incorporated by reference in its entirety). Slides were rehydrated through an ethanol gradient, prior to 0.1M sodium citrate retrieval and peroxidase block. […]
Immunohistochemistry images were taken via a Nikon E600 microscope, DXM1200 digital camera and NIS Elements software (Nikon Instruments, Melville, N.Y.). […] BrdU sections were imaged and epithelial cells (CK8 positive) were quantified for proliferation via ImageJ software (NIH, Bethesda, Md.). At least three fimbriae with 200 or more FTE were quantified for each treatment. Analysis of p53 staining was similar, with at least three fimbriae per treatment, per patient analyzed. Samples with p53 expression were quantified utilizing adjacent sections stained for the secretory cell marker PAX8 in a qualitative manner as described.

For series [1], the system named is human fallopian fimbriae FTE. As to the kind of experiment: 3D human fimbriae culture: FTE proliferation by BrdU labeling. The note with it: insulin 5 μg/ml (ITS), H2O2 1 mM, E2 10 nM, n=6. It counts as cell-based. How it is done: as §1
Sections (5 μm) were cut and stained via hematoxylin and eosin for morphological analysis or immunohistochemistry was performed to localize proteins of interest as previously described (King et al. Endocr Relat Cancer. 2011. 18:627-42.; herein incorporated by reference in its entirety). Slides were rehydrated through an ethanol gradient, prior to 0.1M sodium citrate retrieval and peroxidase block. Tissues probed for BrdU were exposed to 4M HCl and 0.1M NaB4O7(Fisher Scientific) to denature DNA. All immunohistochemical reagents were obtained from Vector Laboratories, Inc (Burlingame, Calif.) unless otherwise stated. Tissues were blocked in 3% bovine serum albumin (Gemini, West Sacramento, Calif.)-TBS/10% serum and incubated with a primary antibody 1:50 acetylated tubulin (Cell Signaling, Cambridge, Mass.); 1:200 BrdU (AbCam, Cambridge, Mass.); 1:100 cytokeratin 8 (CK8, Developmental Studies Hybridoma Bank, Iowa City, Iowa); 1:50 p53 (Santa Cruz, Santa Cruz, Calif.); 1:100 PAX8 (Proteintech, Chicago, Ill.); 1:100 pH2AX (Cell Signaling); or 1:75 PR (Santa Cruz)) overnight at 4°. Tissues were washed in TBS-0.1% Tween and incubated with a secondary antibody (1:200), before being probed with ABC peroxidase standard, followed by detection with 3,3′-diaminobenzidine (DAB) and counterstained with hematoxylin.
Immunohistochemistry images were taken via a Nikon E600 microscope, DXM1200 digital camera and NIS Elements software (Nikon Instruments, Melville, N.Y.). For proliferation analysis, concurrent sections were stained for CK8 and BrdU. BrdU sections were imaged and epithelial cells (CK8 positive) were quantified for proliferation via ImageJ software (NIH, Bethesda, Md.). At least three fimbriae with 200 or more FTE were quantified for each treatment. […] Samples with p53 expression were quantified utilizing adjacent sections stained for the secretory cell marker PAX8 in a qualitative manner as described.
For orientation: Incorporation of labelled thymidine or its analogues reports DNA synthesis.

In series [2] the test system is human fallopian tube epithelium. As to the kind of experiment: Fallopian epithelia cilia beating quantification. The note with it: 7 days culture; P4 added to E2. It counts as cell-based. How it is done:
Human fallopian tissue was obtained from routine hysterectomies from women in their reproductive years (ages range from 26 to 50 years old) and who had not undergone exogenous hormonal treatment for at least three months prior to surgery. Informed consent was obtained from each patient and approval granted by the ethics committee of the Northwestern University. Human fallopian tissue was kept in the DMEM/F12 medium with 10% FBS on ice and processed within 24 hours. The tissue was washed with warm PBS solution two times before being transferred into warm dissection medium (Liebowitz 15 with 0.5% P/S and 10% FBS). After cleaning connective tissue from outside of the fallopian tissue, the fallopian tube was cut open and the inner epithelia layer was mechanically dissected using forceps. […]
Fallopian epithelia layers were cultured in estradiol (E2) 1 nM, E2 1 nM+progesterone (P4) 10 nM, E2 0.1 nM+P4 50 nM or with solvent only negative control for 7 days. Cilia beating movies were acquired using an Andor Spinning Disk Confocal with 5 ms exposure time and 5 ms readout time. […] The Multiple Kymograph plugin for the NIH ImageJ software was used to quantify cilia beating frequency. In each movie, 8 clusters of cilia were picked for the cilia beating quantification.

For series [3], the system named is IGF1 secretion by human fallopian epithelium. As to the kind of experiment: hIGF1 immunoblot of fallopian epithelium conditioned medium. It counts as cell-based. How it is done: (§2) Human fallopian tissue was obtained from routine hysterectomies from women in their reproductive years (ages range from 26 to 50 years old) and who had not undergone exogenous hormonal treatment for at least three months prior to surgery. Informed consent was obtained from each patient and approval granted by the ethics committee of the Northwestern University. Human fallopian tissue was kept in the DMEM/F12 medium with 10% FBS on ice and processed within 24 hours. The tissue was washed with warm PBS solution two times before being transferred into warm dissection medium (Liebowitz 15 with 0.5% P/S and 10% FBS). After cleaning connective tissue from outside of the fallopian tissue, the fallopian tube was cut open and the inner epithelia layer was mechanically dissected using forceps. […] Tissue was cultured on 0.4 μm pore Millicell inserts (PICM03050, EMD Millipore Co, Billerica, Mass., USA) twelve-well plates with culture medium in a 37° C. and 5% CO2 incubator. Estrogen (E2) and progesterone (P4) used in tissue culture experiments were purchased from Sigma (St. Louis, Mo.).
(§3) Cultured human fallopian epithelia layers were homogenized with a minipestle in ice-cold lysis buffer (20 mM Tris-HCl, pH 8.0, 137 mM NaCl, 10% glycerol, 1% NP-40, 2 mM EDTA). Lysate normalized for protein content was loaded into NuPAGE 4-12% gradient Bis-Tris precast SDS-PAGE gels and transferred to a nitrocellulose membrane (Life Technologies, Carlsbad, Calif., USA). Blots were probed by polyclonal anti-OVGP1 antibody (LsBio, Cambridge, Mass.) overnight in 4° C. followed by anti-rabbit secondary antibody conjugated to horseradish peroxidase (Zymed, San Francisco, Calif.). Proteins were detected by ECL primer (GE HealthCare Life Sciences, Pittsburgh, Pa.) and exposed to X-ray film (Kodak, Rochester, N.Y.). The same blot was stripped using stripping buffer (Thermo Scientific, Hanover Park, Ill.) and re-probed with monoclonal anti-α-tubulin (Sigma, St. Louis, Mo.) followed by an anti-mouse secondary antibody conjugated to horseradish peroxidase. NIH ImageJ Imaging Software was used to quantify the density of western blot bands. Conditioned medium from fallopian epithelia cultures was collected and probed via western blot analysis using a polyclonal anti-hIGF1 antibody (abcam, Cambridge, Mass.). The blot was detected by the same method described above.
Fallopian epithelia layers cultured on […] inserts were pre-cultured in the alpha-MEM with 0.3% BSA, ITS and 1% P/S medium for two days. Cell culture medium was collected for the glucose ELISA assay (abcam, Cambridge, Mass.). Medium was diluted 1:500 and ELISA was performed according to the protocol provided by the kit. […]
For orientation: In western blotting, separated proteins are transferred to a membrane and probed.

Series [4] concerns OVGP1 expression in human fallopian epithelium. As to the kind of experiment: OVGP1 immunoblot of cultured fallopian epithelium lysate. It counts as cell-based. How it is done: as §2, §3
The subject of the next series is endometrial cells. Kind of series: Cell survival Wst-1 assay in endometrial cells cultured in 2D. Type of series: cell-based, human. The note with it: 2D culture, 72 hours.
[5] abbreviates: 28 days stepwise E2 and P4 treatment, P4 in the presence of E2.

As to `[NH2][Pt]([NH2])([Cl])[Cl]` [CDDP, Cisplatin], in the series with Stage 5b mouse follicles, the “concentration at which complete release of the oocyte from the follicle was first observed” value was found to be 5000 nM. The follicle survival is listed as 76.31% with Stage 5b mouse follicles (1 μM, day 4 of culture); 58.38% with Stage 5b mouse follicles (1 μM, day 6 of culture); 47.83% with Stage 5b mouse follicles (5 μM, day 4 of culture); 12.56% in the series on Stage 5b mouse follicles (5 μM, day 6 of culture).

`O=P1(N(CCCl)CCCl)NCCCO1` (centres unmarked) [CTX, cyclophosphamide]: the follicle survival is listed as 71.8% in the series with Stage 5b mouse follicles (0.2 μM, day 6 of culture (treated on day 2)); 57.23% in the series with Stage 5b mouse follicles (1 μM, day 4 of culture); 32.43% in the series on Stage 5b mouse follicles (1 μM, day 6 of culture); 36.41% in the series on Stage 5b mouse follicles (5 μM, day 4 of culture); 11.49% in the series with Stage 5b mouse follicles (5 μM, day 6 of culture). Besides, the follicle morphology result in the series on Stage 5b mouse follicles (increasing concentrations (0.2, 1, 5 μM)) was “disorganized follicles with dark granulosa cells and little evidence of antral cavity formation”. Further, the “concentration at which complete release of the oocyte from the follicle was first observed” value in the series with Stage 5b mouse follicles (most severe phenotype) was determined as 1000 nM.

With `OO` [H2O2], in the series on p53 stabilization in FTE, the p53 stabilization entry was “no factor notably induced p53 stabilization”. For the same compound, the “FTE proliferation (percentage of total FTE cells, BrdU)” value amounted to 4.0±1.1% in series [1] (2 days in culture) and 2.2±0.5% in series [1] (7 days in culture).

In the case of `CC(=O)[C@H]1CC[C@H]2[C@@H]3CCC4=CC(=O)CC[C@]4(C)[C@H]3CC[C@]12C` [P4, progesterone], in series [2], the “cilia beating frequency (CBF)” value is “decreased”. The IGF1 secretion entry is “attenuated” in series [3] (7 days culture, 1 nM E2, P4 added to E2) and “suppressed” in series [3] (setting [5]). For the same compound, the “OVGP1 expression in the fallopian lysate” value in series [4] (7 days culture, P4 added to E2) was “suppressed”. For the same compound, in series [4] (setting [5]), the OVGP1 expression result is reported as “suppressed”.

Regarding `C[C@]12CC[C@H]3[C@@H](CCC4=CC(=O)CC[C@@]43C)[C@@H]1CC[C@@H]2O` [testosterone], the “toxicity on endometrial cells (cell survival)” value in the series with endometrial cells was “no toxicity”.

Regarding “Insulin: insulin 5 μg/ml given via ITS supplement (insulin; transferrin; selenite)”, the p53 stabilization entry with p53 stabilization in FTE is recorded as “no factor notably induced p53 stabilization”. Further, in series [1] (7 days in culture), the “FTE proliferation (percentage of total FTE cells, BrdU)” value was found to be 4.1±0.9%.

The values above are taken from patent US11542475B2, “3D microphysiologic system” (Northwestern University, priority 2014, dated 2023).
